Experimental data reported in patent publication US8735406B2, “8-oxodihydropurine derivative” (Dainippon Sumitomo Pharma Co., Ltd., priority 2009, dated 2014).
Read-outs that look alike come from different tables or passages of the source.

Target: T1, FAAH (Rattus norvegicus, UniProt P97612)
T1 construct: Preparation of Rat Brain Membranes Preparations (FAAH Enzyme Solution); from tissue; host or cells: rat cerebrum (brain membrane preparation)
T1 sequence (P97612 1-579): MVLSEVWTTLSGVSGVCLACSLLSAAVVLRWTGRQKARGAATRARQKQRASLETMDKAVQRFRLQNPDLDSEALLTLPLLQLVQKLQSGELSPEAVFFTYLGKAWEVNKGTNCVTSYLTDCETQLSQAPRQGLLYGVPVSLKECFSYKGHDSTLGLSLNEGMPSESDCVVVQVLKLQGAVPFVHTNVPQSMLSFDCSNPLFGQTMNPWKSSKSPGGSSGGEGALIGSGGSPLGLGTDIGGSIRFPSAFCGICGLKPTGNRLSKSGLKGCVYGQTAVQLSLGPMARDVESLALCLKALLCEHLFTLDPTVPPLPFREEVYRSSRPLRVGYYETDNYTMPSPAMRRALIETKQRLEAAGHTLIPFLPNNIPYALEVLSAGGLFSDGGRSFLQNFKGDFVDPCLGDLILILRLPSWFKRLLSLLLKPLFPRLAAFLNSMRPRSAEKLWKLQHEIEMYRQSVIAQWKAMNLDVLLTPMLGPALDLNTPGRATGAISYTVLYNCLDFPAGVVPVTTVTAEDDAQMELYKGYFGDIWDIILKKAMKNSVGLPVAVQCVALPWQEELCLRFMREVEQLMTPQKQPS
Assay: Determination of FAAH inhibitory activity in rat (rat brain membrane preparations, [3H]-anandamide hydrolysis)
Format: biochemical
Details: for IC50: read-out: FAAH Inhibition IC50
Method in brief: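 Compounds tested from 0.1 nM to 1 μM to derive IC50 against FAAH hydrolysis in rat brain membrane preparations (100 μg/mL). A 10-min 37 °C preincubation was followed by 10 min with [3H]-anandamide (2 nM) mixed with 2 μM unlabelled anandamide. Radioactive ethanolamine was extracted into the water/methanol layer and counted.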

[1] = rat brain membrane preparations, 100 nM test substance, read-out: FAAH Inhibition, Inhibition Rate at 100 nM
[2] = rat brain membrane preparations, test substance 0.1 nM to 1 μM
[3] = at 100 nM, rat brain membrane preparations, read-out: FAAH Inhibition Inhibition Rate at 100 nM
[4] = rat brain membrane preparations
[5] = read-out: FAAH Inhibition, Inhibition Rate at 100 nM

Row | SMILES | inhibition at 0.1 µM [1] | IC50 [2] | inhibition at 0.1 µM [3] | IC50 [4] | inhibition at 0.1 µM [5]
1 | COc1cccc(-c2ncc3c(n2)n(C)c(=O)n3C(=O)N(C)Cc2ccccc2)c1 [Example 88, N-Benzyl-2-(3-methoxyphenyl)-N,9-dimethyl-8-oxo-8,9-dihydro-7H-purine-7-carboxamide] | 93% | 43 nM |  |  | 
2 | Cn1c(=O)n(C(=O)N2CCCC2)c2cnc(C3CCCCC3)nc21 [Example 316, 2-cyclohexy-9-methyl-7-(pyrrolidin-1-ylcarbonyl)-7,9-dihydro-8H-purine-8-one] | 80% | 55 nM |  |  | 
3 | Cn1c(=O)n(C(=O)N2CCC(CCc3ccc(Cl)cc3)CC2)c2cnc(-c3cccnc3)nc21 [Example 147, 7-({4-[2-(4-Chlorophenyl)ethyl]piperidin-1-yl}carbonyl)-9-methyl-2-(pyridin-3-yl)-7,9-dihydro-8H-purine-8-one] | 96% | < 1 nM |  |  | 
4 | Cn1c(=O)n(C(=O)N2CC(c3cccc(F)c3)C2)c2nc(C3CC3)ncc21 [Example 632] |  |  | 84% | 31 nM | 
5 | COc1cccc(-c2ncc3c(n2)n(C)c(=O)n3C(=O)N2CC=C(/C=C/c3ccc(F)cc3)CC2)c1 [Example 95, 7-({4-[(E)-2-(4-Fluorophenyl)ethenyl]-3,6-dihydropyridin-1(2H)-yl}carbonyl)-2-(3-methoxyphenyl)-9-methyl-7,9-dihydro-8H-purine-8-one] | 101% | 3 nM |  |  | 
6 | COc1cccc(-c2ncc3c(n2)n(C)c(=O)n3C(=O)N(C)CCc2cccc(F)c2)c1 [Example 75, N-[2-(3-Fluorophenyl)ethyl]-2-(3-methoxyphenyl)-N,9-dimethyl-8-oxo-8,9-dihydro-7H-purine-7-carboxamide] |  | < 1 nM |  |  | 103%
7 | COc1cccc(-c2ncc3c(n2)n(C)c(=O)n3C(=O)N2CCN(Cc3ccc(C(F)(F)F)cc3)CC2)c1 [Example 89, 2-(3-Methoxyphenyl)-9-methyl-7-({4-[4-(trifluoromethyl)benzyl]piperazin-1-yl}carbonyl)-7,9-dihydro-8H-purine-8-one] |  | 44 nM |  |  | 92%
8 | CN(C)C(=O)n1c(=O)n(C)c2cnc(COc3cccc(C(F)(F)F)c3)nc21 [Example 422] | 88% | 22 nM |  |  | 
9 | COc1ccc(N2CCN(C(=O)n3c(=O)n(C)c4nc(-c5ccccc5)ncc43)CC2)cc1 [Example 135, 7-{[4-(4-Methoxyphenyl)piperazin-1-yl]carbonyl}-9-methyl-2-phenyl-7,9-dihydro-8H-purine-8-one] | 99% | 5 nM |  |  | 
10 | COCc1ncc2c(n1)n(C)c(=O)n2C(=O)N1CC(c2cccc(C)c2)C1 [compound 444] | 69% | 62 nM |  |  | 
11 | CCN(C)C(=O)n1c(=O)n(C)c2nc(Cc3ccc(F)cc3)ncc21 [Example 279, N-Ethyl-2-(4-fluorobenzyl)-N,9-dimethyl-8-oxo-8,9-dihydro-7H-purine-7-carboxamide] | 98% | 3 nM |  |  | 
12 | Cn1c(=O)n(C(=O)N2CCCC2)c2cnc(C3=CCCCC3)nc21 [Example 218, 2-(cyclohexen-1-yl)-9-methyl-7-(pyrrolidin-1-ylcarbonyl)-7,9-dihydro-8H-purine-8-one] | 95% | 25 nM |  |  | 
13 | CCCCc1ncc2c(n1)n(C)c(=O)n2C(=O)N(C)CCc1ccc(Cl)cc1 [Example 155, 2-Butyl-N-[2-(4-chlorophenyl)ethyl]-N,9-dimethyl-8-oxo-8,9-dihydro-7H-purine-7-carboxamide] | 102% | 4 nM |  |  | 
14 | Cc1cccc(CCc2ncc3c(n2)n(C(=O)N2CCC2)c(=O)n3C)c1 [compound 560] | 91% | 14 nM |  |  | 
15 | CCn1c(=O)n(C(=O)N(C)C)c2nc(CCc3ccc(F)cc3)ncc21 [Example 645, 7-Ethyl-2-[2-(4-fluorophenyl)ethyl]-N,N-dimethyl-8-oxo-7,8-dihydro-9H-purine-9-carboxamide] |  |  | 98% | 20 nM | 
16 | Cn1c(=O)n(C(=O)N2CCC2)c2nc(COc3ccc(Cl)cc3)ncc21 [Example 428] | 123% | 10 nM |  |  | 
17 | CN(C(=O)n1c(=O)n(C)c2nc(-c3ccccc3)ncc21)C1CCCCC1 [Example 43] | 20% | > 100 nM |  |  | 
18 | COc1cccc(-c2ncc3c(n2)n(C)c(=O)n3C(=O)N(C)Cc2cccc(C(F)(F)F)c2)c1 [Example 82, 2-(3-Methoxyphenyl)-N,9-dimethyl-8-oxo-N-[3-(trifluoromethyl)benzyl]-8,9-dihydro-7H-purine-7-carboxamide] | 90% | 36 nM |  |  | 
19 | Cn1c(=O)n(C(=O)N2CCCC2)c2cnc(-c3ccc(F)cc3)nc21 [Example 168, 2-(4-Fluorophenyl)-9-methyl-7-(pyrrolidin-1-ylcarbonyl)-7,9-dihydro-8H-purine-8-one] | 100% | 6 nM |  |  | 
20 | CCCn1c(=O)n(C(=O)N2CC(c3ccc(F)cc3)C2)c2cnc(COC)nc21 [Example 659, 7-{[3-(4-Fluorophenyl)azetidin-1-yl]carbonyl}-2-(methoxymethyl)-9-propyl-7,9-dihydro-8H-purine-8-one] |  |  | 112% | 6 nM | 

Now from value to molecule, other results behind:

Row | inhibition at 0.1 µM [1] | IC50 [2] | inhibition at 0.1 µM [3] | IC50 [4] | SMILES | inhibition at 0.1 µM [5]
21 | 100% | 7 nM |  |  | CC(C)c1ccc(CCc2ncc3c(n2)n(C(=O)N2CCC2)c(=O)n3C)cc1 [compound 563] | 
22 |  |  | 95% | 12 nM | Cn1c(=O)n(C(=O)N2CCC2)c2nc(CCc3ccc(OCC(F)(F)F)cc3)ncc21 [Example 613, 9-(Azetidin-1-ylcarbonyl)-7-methyl-2-{2-[4-(2,2,2-trifluoroethoxy)phenyl]ethyl}-7,9-dihydro-8H-purine-8-one] | 
23 | 98% | 3 nM |  |  | COc1cccc(-c2ncc3c(n2)n(C)c(=O)n3C(=O)N(C)CCOc2ccccc2)c1 [Example 65, 2-(3-Methoxyphenyl)-N,9-dimethyl-8-oxo-N-(2-phenoxyethyl)-8,9-dihydro-7H-purine-7-carboxamide] | 
24 | 95% | 6 nM |  |  | CN(C)C(=O)n1c(=O)n(C)c2cnc(CCCOc3cccc(C(F)(F)F)c3)nc21 [Example 399] | 
25 | 43% | 149 nM |  |  | Cc1cccc(Cc2ncc3c(n2)n(C)c(=O)n3C(=O)N2CCC2)c1 [compound 371] | 
26 | 91% | 28 nM |  |  | CN(C)C(=O)n1c(=O)n(C)c2cnc(CCc3ccccc3F)nc21 [compound 499] | 
27 | 83% | 21 nM |  |  | CN(C)C(=O)n1c(=O)n(C)c2cnc(-c3ccc(C(F)(F)F)cc3F)nc21 [Example 338, 2-[2-Fluoro-4-(trifluoromethyl)phenyl]-N,N,7-trimethyl-8-oxo-7,8-dihydro-9H-purine-9-carboxamide] | 
28 |  |  | 97% | 16 nM | CCn1c(=O)n(C(=O)N(C)C)c2nc(CCc3ccccc3F)ncc21 [Example 643] | 
29 | 110% | 2 nM |  |  | COc1cccc(-c2ncc3c(n2)n(C)c(=O)n3C(=O)N(C)CCOCC2CC2)c1 [Example 116, N-[2-(Cyclopropylmethoxy)ethyl]-2-(3-methoxyphenyl)-N,9-dimethyl-8-oxo-8,9-dihydro-7H-purine-7-carboxamide] | 
30 | 95% | 40 nM |  |  | Cn1c(=O)n(C(=O)N2CCCC2)c2cnc(Cc3ccc(Cl)cc3)nc21 [Example 20, 2-(4-Chlorobenzyl)-9-methyl-7-(pyrrolidin-1-ylcarbonyl)-7,9-dihydro-8H-purine-8-one] | 
31 | 101% | 7 nM |  |  | CCn1c(=O)n(C(=O)N2CCCC2)c2cnc(-c3ccccc3)nc21 [Example 303] | 
32 | 70% | 67 nM |  |  | COc1cccc(CCc2ncc3c(n2)n(C(=O)N(C)C)c(=O)n3C)c1 [compound 543] | 
33 | 99% | 26 nM |  |  | Cc1cc(F)cc(-c2ncc3c(n2)n(C)c(=O)n3C(=O)N2CCCC2)c1 [Example 201, 2-(3-Fluoro-5-methylphenyl)-9-methyl-7-(pyrrolidin-1-ylcarbonyl)-7,9-dihydro-8H-purine-8-one] | 
34 | 100% | 4 nM |  |  | CCOc1ccc(N2CCN(C(=O)n3c(=O)n(C)c4nc(-c5cccc(OC)c5)ncc43)CC2)cc1 [Example 141, 7-{[4-(4-Ethoxyphenyl)piperazin-1-yl]carbonyl}-2-(3-methoxyphenyl)-9-methyl-7,9-dihydro-8H-purine-8-one] | 
35 | 104% | 10 nM |  |  | CC(C)c1ccc(CCc2ncc3c(n2)n(C(=O)N(C)C)c(=O)n3C)cc1 [compound 502] | 
36 |  |  | 93% | 6 nM | CN(C)C(=O)n1c(=O)n(C)c2cnc(CCCC3CCCC3)nc21 [Example 617] | 
